Reference: PubChem BioAssay AID179 (DTP/NCI, 2004)
Calls of active or inactive are those of the source.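 The calls were made as follows: active = compounds giving half or more protection of infected cells from virus-caused growth loss, again on retest; inactive = the rest.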 Where a SMILES comes first, the peptide text is derived from it. [ ]: non-standard residue; d: D form. The star is where a group is joined. ξ: configuration not given here. Myristoyl = CCCCCCCCCCCCCC(=O)*; Ac5c = NC1(C(=O)O)CCCC1; ξS = NC(CO)C(=O)O

Test system: CEM cells HIV-1 protection, formazan growth assay
Assay: NCI AIDS Antiviral Assay
Details: for IC50: measured here: growth of uninfected CEM cells
Procedure, shortened: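 Five concentrations of each compound were applied to infected and uninfected human CEM cells. Protection from HIV-1 was judged from growth measured with a soluble formazan assay.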

Compound	EC50	IC50	outcome
NC(CCSSCCC(N)C(=O)O)C(=O)O (centres undefined)	> 19.5 µM	> 19.5 µM	
OCC1OC(OC[C@H](COCc2ccccc2)OCc2ccccc2)C(O)C(O)C1O (some centres undefined)	> 35.5 µM	> 35.5 µM	
CCC(C)C(NC(=O)CNC(=O)CN)C(=O)NCC(=O)NCC(=O)O (centres undefined) (HELM PEPTIDE1{G.G.[CCC(C)C(N[*:1])C(=O)[*:2]].G.G}$$$$V2.0)	> 69.2 µM	> 69.2 µM	
[N-]=[N+]=C(S(=O)(=O)O)S(=O)(=O)O	> 200 µM	> 200 µM	
CC(C)c1ccc(/C(O)=C/C(=O)C(=O)/C=C(/O)c2ccc(C(C)C)cc2)cc1			inactive
CC(=O)OC1CC2CC(=O)CC1N2C (centres undefined)	> 200 µM	> 200 µM	
O=C1CN(S(=O)(=O)c2ccc([N+](=O)[O-])cc2)CC(=O)CN(S(=O)(=O)c2ccc([N+](=O)[O-])cc2)C1	> 200 µM	> 200 µM	
O=c1cccc(-c2cccc(=O)[nH]2)[nH]1			inactive
CC(=O)N(C(=O)CC(=O)NN)c1ccc(Cl)cc1			inactive
CNC(=O)N(CCC#N)CCN(CCN(C(=O)NC)c1ccccc1)C(=O)NC	> 200 µM	> 200 µM	
Oc1ccc(Cl)cc1C(c1cc(Cl)ccc1O)C(Cl)(Cl)Cl	9.77 µM	16.6 µM	
CCOC(=O)C[P+](c1cccc(F)c1)(c1cccc(F)c1)c1cccc(F)c1	> 200 µM	166 µM	
O=C1CCCCCCCCCCC1CCCCCBr (centres undefined)	> 200 µM	57.5 µM	
Cc1cc2c(cc1Cl)SC(NNc1ccc([N+](=O)[O-])cc1)=NS2(=O)=O			inactive
O=c1[nH]c2c(c(=O)[nH]1)SC(c1ccccc1)C2 (centres undefined)	> 200 µM	> 200 µM	
COc1cc(C(=O)/C=C/c2ccc(OCCSCCCCCCCCCCSCCOc3ccc(/C=C/C(=O)c4cc(OC)c(OC)c(OC)c4)cc3)cc2)cc(OC)c1OC	> 151 µM	> 151 µM	
CCOC(=O)Cc1cc(=O)[nH]c(-n2[nH]c(C)c(CCO)c2=O)n1	> 200 µM	> 200 µM	
COC(=O)C(Cc1c[nH]c2ccccc12)NP(=O)(O)OCC1OC(n2cc(I)c(=O)[nH]c2=O)CC1O (centres undefined)	> 200 µM	> 200 µM	
Nc1c2ccccc2nc2ccc3c(=O)cc(-c4ccccc4)oc3c12	> 20 µM	0.912 µM	
CN(C)C(=S)SSC(=S)N(C)C.[Zn+2]	> 200 µM	0.117 µM	
CC(=O)OCC1(C)C(OC(C)=O)CCC2(C)C(CC(OC(C)=O)C3=CCOC3=O)C(O)(CO)CCC12 (centres undefined)			inactive

Compound	EC50	IC50	outcome
C=C1CN(S(=O)(=O)c2ccc(C)cc2)CCCN(CC(C)CC)CCCN(S(=O)(=O)c2ccc(C)cc2)C1 (centres undefined)	> 58.9 µM	2.57 µM	
O=C(Nc1ccc(C2=NCCN2)cc1)c1ccc(F)c(C(=O)Nc2ccc(C3=NCCN3)cc2)c1	> 200 µM	> 200 µM	
CNC(=O)O/N=C(\C(=N\OC(=O)NC)c1ccccc1)c1ccccc1			inactive
O=C1C=C2C[C@H]3C(O)C[C@]2(O1)[C@H]1CCCN31 (some centres undefined)	> 112 µM	> 112 µM	
CC(=O)O[C@@H]1CC[C@]2(C)C3CC[C@]4(C)C(C(C)CCc5nc6ccccc6[nH]5)CCC4C3[C@H](OC(C)=O)C[C@@H]2C1 (some centres undefined)	> 50.1 µM	12.9 µM	
COc1cc(O)c2c(=O)c3ccccc3n(C)c2c1	> 200 µM	11.2 µM	
C=C[C@]1(C)CC[C@]2(C)C(CC[C@@]3(C)C2C[C@H](O)[C@H](O)[C@@]3(C)O)C1 (some centres undefined)	> 200 µM	141 µM	
O=C1/C(=C/c2ccc(Cl)cc2)CSC/C1=C\c1ccc(Cl)cc1	> 200 µM	2.63 µM	
C=CCn1c(-c2ccc([N+](=O)[O-])cc2)cs/c1=N\C(P(=O)(O)O)P(=O)(O)O	> 200 µM	> 200 µM	
CC(C)(C)C1CCC2c3c([nH]c4ccccc34)C3C(=O)N(c4ccccc4Cl)C(=O)C3C2C1 (centres undefined)	> 200 µM	16.6 µM	
CCOC(=O)CCn1[nH]c(=O)c(Cl)c(Cl)c1=O			inactive
OC1C2CCC1C1C3C=CC(C3)C21 (centres undefined)			inactive
CC(C)(C)c1cc(C(C)(C)C)c2[n+]([O-])ssc1-2	> 145 µM	20.4 µM	
COc1cc(C[C@H]2C(=O)OCC2Cc2ccc(OC)c(OC)c2)ccc1O (some centres undefined)	> 200 µM	5.5 µM	
O=C(O)c1csc(C(=O)O)c1	162 µM	759 µM	
Cc1ccc([N+](=O)[O-])c2c(NCCNC(=O)Cn3ccnc3[N+](=O)[O-])ccnc12	> 100 µM	79.4 µM	
O=C1c2ccccc2-c2c1c1ccccc1c(=O)n2-c1ccccc1	> 30.9 µM	> 30.9 µM	
CCOC(=O)[C@H]1C[C@@H](C(=O)c2ccccc2)N2N=C(c3ccc(Br)cc3)C=C[C@H]12	> 100 µM	> 100 µM	
COC(=O)C1=C2Nc3ccccc3C[C@@]23CCN2CCC[C@@](C(C)OC(=O)C=C(C)C)(C1)C23 (some centres undefined)	> 200 µM	23.4 µM	
Cc1cccc(N=NC2Sc3nc4ccccc4n3C2=O)c1 (centres undefined)	> 200 µM	> 200 µM	
CC(C)Oc1c(-c2c(OC(C)C)c(=O)c2=O)c(=O)c1=O	> 200 µM	> 200 µM	

Compound	EC50	IC50	outcome
CC1CC/C(=[N+](/C)Nc2ccc([N+](=O)[O-])cc2[N+](=O)[O-])C2CCC(C(C)C(=O)O)C=C12 (centres undefined)			inactive
Nc1nc2c(ncn2C2OC(CO)(C(F)(F)F)C(O)C2O)c(=O)[nH]1 (centres undefined)	> 200 µM	> 200 µM	
CS(=O)(=O)Oc1nn2c(OS(C)(=O)=O)nnc2s1	> 200 µM	28.8 µM	
O=C(CC(C(=O)c1ccsc1)c1cccs1)c1ccccc1 (centres undefined)	> 200 µM	49 µM	
CN(CCCNC(=O)c1cn(C)c2c1ccc1ccccc12)CCCNC(=O)c1cn(C)c2c1ccc1ccccc12	> 200 µM	2.88 µM	
CCCCCCCCCCCCCC(=O)NCC(=O)NC(CO)C(=O)NC(CO)C(=O)NC(CCCCN)C(=O)NC(CO)C(=O)NC(CCCCN)C(=O)N1CCCC1C(=O)NC(CCCCN)C(=O)NC(CC(=O)O)C(N)=O (centres undefined) (Myristoyl-GSSKSKPKD-NH2; configuration not given here)	> 219 µM	> 219 µM	
CC(CC(=O)N(C)[C@H](C[C@@H](C)C(Cl)(Cl)Cl)c1nccs1)C(Cl)Cl (some centres undefined)			inactive
Nn1c(NNC(=O)C(=O)Nc2cc(Cl)c(Cl)cc2Cl)n[nH]c1=S	> 123 µM	> 123 µM	
CCOC(=O)C(CO)NC(=O)C1(NC(C)=O)CCCC1 (centres undefined) (Ac-[Ac5c]-[ξS]-OEt)	> 200 µM	> 200 µM	
Cn1c2c(c3ccccc31)CCN1C[C@@H]3CCCC[C@H]3C[C@@H]21	> 100 µM	1.62 µM	
Nc1nc2c(ncn2CC2OC(CO)C(CO)O2)c(=O)[nH]1 (centres undefined)	> 115 µM	> 115 µM	
COc1cc(C(=O)N(C(=O)N2CCCCC2)c2ccccc2)cc(OC)c1OC	> 200 µM	> 200 µM	
COc1ccc2[nH]c3c(C)c4ccnc(NCCCN(C)CCCNc5ccc([N+](=O)[O-])c6[nH]c7ccccc7c(=O)c56)c4c(C)c3c2c1	> 0.0501 µM	0.0257 µM	
O=C1/C(=C/c2ccccc2)CN(C(=O)Oc2ccc([N+](=O)[O-])cc2)C/C1=C\c1ccccc1			inactive
O=c1[nH]c(Nc2ccccc2)nc2c1ncn2CC(O)CSCCO (centres undefined)	> 200 µM	> 200 µM	
O=S(=O)(c1ccc(I)cc1)c1ccc(I)cc1			inactive
CCSC(CCC(NC(C)=O)(C(=O)O)C(=O)O)SCC	> 200 µM	> 200 µM	
Cc1ccc(/C=C2/N=C([Se])N(C)C2=O)cc1	> 18.6 µM	> 18.6 µM	
COc1cc(OC)c(/C=C\c2nccc3ccccc23)c(OC)c1	> 200 µM	13.8 µM	
Nc1ccn(C2OC(C(O)CO)C(O)C2O)c(=O)n1 (centres undefined)			inactive
CCOP(=S)(OCC)Oc1ccc2c(C)c(Cl)c(=O)oc2c1	> 37.2 µM	> 37.2 µM	

Compound	EC50	IC50	outcome
COC(=O)C1(C(=O)OC)Cc2ccc(C)cc2C2=C1C(=O)c1ccccc1C2=O	> 200 µM	5.13 µM	
c1ccc2c(c1)CCCc1cc3ccccc3nc1-2	> 55 µM	> 55 µM	
CCOC(=O)c1ccc(OCc2nc3cc(C(F)(F)F)ccc3nc2-c2ccccc2)cc1	> 200 µM	87.1 µM	
CC1(C)C2CCC(N)(C2)C1O (centres undefined)	> 200 µM	> 200 µM	
CN(C)c1n/c(=N/c2ncn[nH]2)ss1			inactive
CC1=CC(C)(C)SC(SSSC2=NC(C)=CC(C)(C)S2)=N1	> 200 µM	38.9 µM	
COc1cc(/C=C/C2=C(C#N)C(=O)OC2(C)C)ccc1O	> 126 µM	> 126 µM	
CC[N+]1(C)CCC(O)(/C=C/c2ccc(Cl)c(Cl)c2)C(C(=O)/C=C/c2ccc(Cl)c(Cl)c2)C1 (centres undefined)	> 200 µM	3.8 µM	
Cc1cc(-c2ccccc2)c2ccc3c(-c4ccccc4)cc(C)nc3c2n1.Cc1cc(-c2ccccc2)c2ccc3c(-c4ccccc4)cc(C)nc3c2n1.O=C1OC(C(O)C[O-])C(O)=C1O.[Cu+]	> 25.1 µM	0.708 µM	
O=C(CC1(O)C(=O)Nc2ccc(Br)cc21)c1ccc2c(c1)OCO2 (centres undefined)	> 200 µM	178 µM	
O=[N+]([O-])C(=C(Cl)Cl)C(Cl)=C(Cl)Cl	> 200 µM	> 200 µM	
CCCc1noc(C(F)(F)Sc2ncccn2)n1	> 200 µM	> 200 µM	
OCC1CC(F)C(n2cnc3c(F)ncnc32)O1 (centres undefined)	> 49 µM	36.3 µM	
CC1=C(C(=O)Nc2ccccc2)C(c2ccc([N+](=O)[O-])cc2)C(C(=O)Nc2ccccc2)=C(C)N1	> 15.5 µM	> 15.5 µM	
COC(=O)C1=C(C)NC2=C(C(=O)CCC2)C1CCS(C)=O (centres undefined)	> 200 µM	> 200 µM	
CC(C)(C)OC(=O)CN1CCN(CC(=O)N2CCN(C(=O)OCc3ccccc3)CC2)CCN(CC(=O)OC(C)(C)C)CCN(CC(=O)N2CCN(C(=O)OCc3ccccc3)CC2)CC1	> 100 µM	1.29 µM	
CCOC(=O)C[C@H]1C(=O)C[C@@H]2C[C@@H](C)CC(=O)[C@@]21CCC#N			inactive
COC(=O)Cc1c([C@H]2[C@H](CC(=O)OC)c3ccccc3N2C(=O)C(F)(F)F)[nH]c2ccccc12	> 200 µM	27.5 µM	
COC(=O)C1CC23C=CCN4CC(C2C)C2(c5ccccc5NC12)C43 (centres undefined)	> 200 µM	112 µM	
